One may read the CC50 as the concentration at which the toxic effect on the cells reaches its halfway point. As a reminder, the EC50 is the midpoint of the concentration-response curve.

CC50 and EC50 data for three compounds are collected here from article PMC11435438, “Cyclin-Dependent Kinase 8 Represents a Positive Regulator of Cytomegalovirus Replication and a Novel Host Target for Antiviral Strategies” (Pharmaceutics, 2024).

Series [1] in a line: Neutral Red uptake cell viability assay in mock-infected U373 cells. It counts as cell-based. The note with it: human, read-out: CC50 Mock-inf. On the procedure:
(§1) To address cell viability after compound treatment, a NR uptake assay was performed. Uninfected cells were seeded at equal numbers as for antiviral replication assays and treated with compounds or solvent control. The treatment was performed for HFFs (7 d), U373 (14 d), A549 (3 d), J-Jhan (14 d), and non-dox-induced iSLK.219 cells (3 d). At the end of the treatment period, 40 µg/mL of Neutral Red (NR) was added and incubated for 2–4 h at 37 °C, before the NR-containing supernatant was removed. Cells were destained using a solution containing 50% ethanol, 1% acetic acid, and 49% water. NR fluorescence was quantified using the Victor X4 microplate reader (PerkinElmer, Waltham, MA, USA) (560/630 nm). For the AB cell viability assay, which was also used to quantify virus-induced cytopathogenicity (particularly in the case of GPCMV in GPEFs), cells were seeded at equal numbers as for antiviral replication assays and incubated with a medium containing 25 ng/mL AB (resazurin; Ann Arbor, MI, USA), incubated for 6 h at 37 °C, and used for measurement identical with NR.

The test system of another series is HCMV TB40-YFP. Nature of the series: HCMV TB40-YFP replication assay in HFFs. It counts as cell-based, human cytomegalovirus. Conditions: Human betaherpesvirus 5, HFF, read-out: EC50 TB40-YFP. On the procedure:
(i.e., 1 × TCID25/7d). Immediately after virus adsorption, the cells were treated with antiviral compounds or solvent control (DMSO). Infections were performed in biological quadruplicates, or as indicated for individual experiments. The cells were fixed by the addition of 150 µL 10% formalin/well 7 d p.i. (Merlin-GFP 14 d p.i.), and washed with PBS. For GFP or YFP quantitation, the Victor X4 microplate reader (PerkinElmer, Waltham, MA, USA) was primarily used, or as a very sensitive alternative, the ImageXpress® Pico device (Molecular Devices LLC, San Jose, CA, USA). Mean EC50 values of antiviral efficacy were calculated on the basis of three experimental replicates or as indicated (measurement of fluorescence values in quadruplicate), and percentage values were provided relative to the solvent control (DMSO).

Series [2] is described as follows: Neutral Red uptake cell viability assay in mock-infected HFFs. The note with it: human, read-out: CC50 Mock-inf. It counts as cell-based. On the procedure:
as §1

The test system of another series is KSHV rKSHV.219-GFP. Description: KSHV lytic replication assay in iSLK.219 cells. It counts as cell-based, Kaposi's sarcoma-associated herpesvirus. The note with it: Human gammaherpesvirus 8, read-out: EC50 KSHV. The method, then: (§2) Primary human foreskin fibroblasts (HFFs; obtained from clinical samples at Children’s Hospital in Erlangen, Germany), guinea pig embryonic fibroblasts (GPEFs; generously provided by Mark R. Schleiss from the University of Minnesota in Minneapolis, MN, USA), and rat embryonic fibroblasts were cultivated in Eagle’s Minimal Essential Medium (MEM) supplemented with 1 × GlutaMAX™ (both from Thermo Fisher Scientific, Waltham, MA, USA), 10 µg/mL gentamicin, and 10% fetal bovine serum (FBS; Capricorn, Ebsdorfergrund, Germany). Human glioblastoma–astrocytoma cell line (U373) and mouse embryonic fibroblasts (MEFs), both obtained from ATCC (Manassas, VA, USA), and Vero cell sublineage 76 [26], were cultivated in Dulbecco’s modified Eagle’s medium (DMEM) supplemented with 1 × GlutaMAX™, 10 µg/mL gentamicin, and 10% fetal bovine serum. All cultured cells were maintained under the conditions of 37 °C temperature, 5% CO2, and 80% humidity. The regular monitoring for the absence of mycoplasma contamination was conducted using Lonza™ Mycoalert™ (Thermo Fisher Scientific, Waltham, MA, USA). Cultured cell-based viral replication assays were performed by the use of the HCMV strain AD169 (variant U.K.), the recombinant HCMVs AD169-GFP expressing green fluorescent protein [27], TB40 IE2-YFP and TB40-FLuc expressing an IE2-YFP fusion protein or firefly luciferase (FLuc), and Merlin-GFP [31]. […]
(§3) A variety of antiherpesviral and non-herpesviral drug activities were assessed by the cell culture-based viral replication systems, as described elsewhere. […] After incubation at 37 °C for 3 days, iSLK.219 cells were fixed with 10% formalin, washed with PBS, and used for a quantitation of RFP reporter signal by PicoMD counting (ImageXpress® Pico device, Molecular Devices LLC, San Jose, CA, USA). […]

The subject of a further series is VZV Oka-GFP. Description: VZV replication assay in HFFs. It counts as cell-based, varicella zoster virus. The note with it: Human alphaherpesvirus 3, read-out: EC50 VZV. The method, then:
as §2, §3

In a further series the test system is MHV-68-Luc. Nature of the series: MHV-68 replication assay in Vero cells. The note with it: Murine herpesvirus, read-out: EC50 MHV-68. It counts as cell-based, murine herpesvirus 68. On the procedure: as §2, §3
For a further series, the system named is HSV-1 166v VP22-GFP. Description: HSV-1 replication assay in HFFs. It counts as cell-based, herpes simplex virus type 1. Conditions: Human alphaherpesvirus 1, read-out: EC50 HSV-1. On the procedure:
as §2, §3

Setting [3] is: mock-infected (uninfected) U373 cells.
[4] abbreviates: mock-infected (uninfected) HFFs.

Structures are written as SMILES. Like-named read-outs stand apart in the source and are kept apart here.

In the case of `Cn1ncc2cc(-c3cnc(N)c(Cl)c3N3CCC4(CCNC4=O)CC3)ccc21` [CCT-151921], in series [1] (U373), the CC50 at 14 d was more than 100 µM. Moreover, the EC50 with HCMV TB40-YFP was 0.01 ± 0.00633 µM; in the series on KSHV rKSHV.219-GFP, 0.3 µM; in the series with VZV Oka-GFP, 28 ± 9 µM; with MHV-68-Luc it was 0.022 ± 0.019 µM; with HSV-1 166v VP22-GFP, more than 50 µM. Moreover, in series [2] (HFF), the CC50 at 7 d was more than 100 µM.

On to `Cc1n[nH]c2ncc(C(=O)N3CCC[C@H]3c3ccc(Cl)cc3)cc12` [MSC-2530818], for which the CC50 at 14 d in series [1] (setting [3]) stood at 87 ± 6 µM. For the same compound, the EC50 in the series with HCMV TB40-YFP is 0.00497 ± 0.0033 µM; with KSHV rKSHV.219-GFP, more than 40 µM; in the series with VZV Oka-GFP, more than 50 µM; in the series with MHV-68-Luc, 0.0025 ± 0.003 µM; in the series on HSV-1 166v VP22-GFP, 42.3 ± 4.9 µM. Besides, in series [2] (setting [4]), the CC50 at 7 d was more than 100 µM.

With `CN(C)C(=O)Cn1cc(-c2ccc(-c3cncc4ccccc34)cc2)cn1` [BI-1347], the CC50 at 14 d in series [1] (setting [3]) was more than 100 µM. Moreover, the EC50 was 0.00283 ± 0.0023 µM in the series with HCMV TB40-YFP; 0.31 ± 0.61 µM in the series with KSHV rKSHV.219-GFP; 26 ± 10 µM in the series with VZV Oka-GFP; 0.0008 ± 0.001 µM with MHV-68-Luc; more than 50 µM in the series on HSV-1 166v VP22-GFP. For the same compound, in series [2] (setting [4]), the CC50 at 7 d is more than 100 µM.
